The source of these data is patent US20030104451A1, “Arrays using polymerized monomolecular films and methods for using and manufacturing the same” (priority 2001, published 2003).

In this assay the target is T1, streptavidin (Streptomyces avidinii, UniProt P22629).
T1 construct: purchased Sigma-Aldrich
Kind of assay: Competitive inhibition of streptavidin capture on biotin-PDTF by free biotin. It is filed as binding. Particulars: streptavidin preincubated 30 min with free biotin; chip 0.25 pmol/monolayer biotin (1% biotin-PDTF). An excerpt:
The remaining free protein (in this case streptavidin) concentration in solution can then be estimated with the MILD-MALDI-MS approach.
The surfaces were allowed to air dry.

With `O=C(O)CCCC[C@@H]1SC[C@@H]2NC(=O)N[C@@H]21` [biotin], the “free biotin excess over streptavidin at which competition is clearly seen” value is listed as 100 -fold.
